From patent EP1960421B1, “NEW POLYPEPTIDES AND THEIR USE” (SEDERMA, priority 2005, dated 2007)
Peptide text beside a SMILES is read from it. * marks the point of attachment. Palmitoyl = CCCCCCCCCCCCCCCC(=O)*

Assay: Solubility in the cell culture conditions (medium without foetal calf serum and few solvent)
Format: physicochemical
Settings: cell culture medium without foetal calf serum and few solvent (DMSO 0.08%)
Description: After 3 days of incubation, supernatants were collected and frozen. Survival was estimated on cell layer using a fluorescent probe. Collagen I was estimated using an original direct ELISA method. Results: TGF-b1 should be promoter of Collagen I synthesis. Statistical analysis were performed on Collagen I data (n=3 to n=5 / assay). Results obtained with molecules were compared to negative control. A Student t test for non paired values was used; significativity was obtained if p < 0.05 or p < 0.01. In our cell culture conditions (medium without foetal calf serum and few solvent), Pal-Gly-Lys-Thr-Thr-Lys-Ser was insoluble for concentrations > 5.4 ppm. Table 1: Effect of Pal-Gly-Lys-Thr-Thr-Lys-Ser (SEQ ID NO: 14) on NHDF's Collagen I. Results (from 4 independent experimentations) are in percent compared to the negative control.

insoluble for concentrations: > 5.4 ppm
SMILES: CCCCCCCCCCCCCCCC(=O)NCC(=O)N[C@@H](CCCCN)C(=O)N[C@H](C(=O)N[C@H](C(=O)N[C@@H](CCCCN)C(=O)N[C@@H](CO)C(=O)O)[C@@H](C)O)[C@@H](C)O [N-Palmitoyl-Gly-Lys-Thr-Thr-Lys-Ser] (Palmitoyl-GKTTKS-OH)
